2 compounds from patent US20090054403A1, “Treatment of Post-Traumatic Stress Disorder” (priority 2007, published 2009) can be followed below.

For one series, the system named is body core temperature. Put plainly: Body core temperature during 10 day chronic dosing. As to conditions: b.i.d. oral: nepicastat 5, 15, 50 mg/kg; SKF-102698 50 mg/kg; clonidine 20 ug/kg; d-amphetamine 2 mg/kg; days 1, 5, 10. As for the experimental part: The effects of chronic dosing of nepicastat were examined. Between three and thirteen days prior to the first dosing day the rats were placed inside the startle apparatus and after a five minute acclimation period they were presented with a 118 dB noise burst on average once a minute (a variable inter-trial interval ranging between 30 and 90 seconds will be used) for 20 minutes. The startle responses were measured and a mean for the last twenty startle response was calculated for each rat.
Rat body core temperatures were obtained by inserting the rectal probe 2 cm into the colon of each rat. Each rat's body core temperature was measured three times and the average of the three reading was calculated. Body core temperature readings were obtained immediately prior to the ten day chronic dosing schedule (to obtain a baseline), and three and half hour after the morning daily dose of nepicastat, and SKF-102698, and 15 minutes prior to the daily administration of clonidine and d-amphetamine, on dosing days one, five and ten. […] Both clonidine (an alpha2 agonist), and d-amphetamine (a dopamine releaser) were used as the positive controls for this assay.
An overall one-way ANOVA with a main effect for treatment was performed at each time on the change from baseline for each animal. Subsequent t-tests were performed for each comparison of interest.

The target of another series is alpha1 receptors. Briefly: Radioligand filtration binding (Example 19). As for the experimental part:
(§1) The affinity of nepicastat was determined in the bindings assays outlined in FIG. 97. Standard radioligand filtration binding methods were used. Competition binding data were analyzed by iterative curve fitting to a four parameter logistic equation. Hill coefficients and IC50 were obtained directly. pKi (−log of Ki) of competing ligands were calculated from IC50 values using the Cheng-Prusoff equation.

Series [1] concerns the target all other receptors examined. Briefly: Radioligand filtration binding (Example 19). The method, then:
as §1

The subject of series [2] is mean arterial pressure and heart rate. Briefly: Heart rate and mean arterial pressure in restrained SHR with SCH-23390 pretreatment. In kind it is in vivo, spontaneous hypertensive rats. From the text:
Male, spontaneous hypertensive rats (280-345 g; Charles River Labs, Kingston, N.Y.) were fasted overnight then anesthetized with ether. A femoral artery and femoral vein were cannulated with PE50 tubing for recording of blood pressure and administration of compounds, respectively. Animals were then placed in MAYO restrainers and their feet loosely taped to the restrainer. Heparinized saline (50 units sodium heparin/ml) was used to maintain patency of each cannula throughout the experiment. The following parameters were continuously recorded using Modular Instruments MI^2 BioReport™ software installed on an IBM personal computer: mean arterial pressure (MAP), heart rate (HR), and the change from baseline for each parameter at specified time points in the experiment.
All compounds were dissolved on the day of use. nepicastat was dissolved in deionized water (vehicle) to a free base concentration of 1 mg/ml. Oral dosing volume for nepicastat or vehicle was 10 ml/kg. SCH-23390 was dissolved in saline (vehicle) to a free base concentration of 0.2 mg/ml. […] or saline were administered intravenously as a bolus in a volume of 1.0 ml/kg followed by 0.2 ml flush of isotonic saline.
Following surgical preparation, each animal was allowed a minimum one hour recovery period. Animals were randomly assigned to four treatment groups: vehicle (iv)/vehicle (po); vehicle (iv)/nepicastat (po); SCH-23390 (iv)/vehicle (po); or SCH-23390 (iv)/nepicastat (po). Once animals were stabilized (minimum one hour), baseline blood pressure and heart rate was determined by taking an average of each parameter over a 15 min period of time. Once baseline blood pressure and heart rate were established, animals were dosed intravenously with either SCH-23390 (200 μg/kg) or vehicle (saline, 1 ml/kg). Fifteen minutes later, animals were orally dosed with either nepicastat (10 mg/kg) or vehicle (deionized water, 10 ml/kg).
Recorded parameters were measured 15 min prior to intravenous dosing to establish baseline blood pressure and heart rate. Recorded parameters were then measured at 5, 10, and 15 min following intravenous administration of SCH-23390 or vehicle. Following oral administration of nepicastat or vehicle, recorded parameters were measured at 15, 30, 60, 90, 120, 150, 180, 210, and 240 min.
At the end of the experiment, each animal was anesthetized with halothane and euthanized via decapitation. The cortex, left ventricle (apex), and mesenteric artery were dissected out, weighed, and fixed in 0.4 M perchloric acid. […] Blood pressure and heart rate were analyzed separately. The change from baseline for blood pressure and heart rate were analyzed by an analysis of variance (ANOVA) with effects for treatment, time, and their interaction. […]

Series [3] deals with heart rate, systolic blood pressure. Briefly: Heart rate and tail cuff systolic blood pressure, 21 days daily treatment. As to conditions: 1 and 10 mg/kg p.o. for 21 days. Type of series: in vivo, SHR.
The subject of series [4] is sympathetically mediated pressor response. Put plainly: Pressor response to pre-ganglionic nerve stimulation in pithed SHR. In kind it is in vivo, spontaneously hypertensive rats (SHR). The method, then:
Hemodynamic study in SHR. Male SHR (15-16 week old) were used in the study. The animals were lightly anesthetized with ether and the left femoral artery and vein were catheterized for measurement of blood pressure and drug administration, respectively. The animals were placed in restrainers and allowed to recover for 30-40 min. […] The animals were then anesthetized with pentobarbital, placed on a heating pad (37° C.) and ventilated with a Harvard rodent ventilator. After administration of atropine (1 mg/kg, iv) and tubocurarine (1 mg/kg, iv), the animals were pithed through the orbit of the eye with a stainless steel rod. The […] rod was stimulated electrically with 1 ms pulses of 80V at different frequencies (0.15, 0.45, 1.5, 5, 15 Hz) to obtain frequency-pressor response curves.

“Also recorded” adds a separate entry of the source.

Turning to `Fc1cc(F)cc(Cn2cc[nH]c2=S)c1` [SKF 102698, reference compound], the body core temperature result in the series on body core temperature is reported as “Lack of Effect”.
The term pKi denotes −log10 of the Ki, conventionally taken in molar units. A low value points to a large Ki. In the case of `Cl.NCc1c[nH]c(=S)n1[C@H]1CCc2c(F)cc(F)cc2C1` [nepicastat, (S)-5-Aminomethyl-1-(5,7-difluoro-1,2,3,4-tetrahydronaphth-2-yl)-2,3-dihydro-2-thioxo-1H-imidazole hydrochloride], the pKi on alpha1 receptors is on record as 6.9-6.7; in series [1], below 6.2. Moreover, the “mean arterial pressure vs vehicle” value in series [2] (10 mg/kg oral) is listed as “significant decrease (p<0.05) in mean arterial pressure by 30 min post dose”. For the same compound, the “heart rate vs vehicle” value in series [2] (SCH-23390 200 μg/kg iv, nepicastat 10 mg/kg po) was “did not decrease the heart rate as much as observed in vehicle treated animals”. Moreover, the “antihypertensive effects of nepicastat after pretreatment with SCH-23390” value in series [2] (nepicastat 10 mg/kg po, SCH-23390 iv, hydrochloride) was “not attenuated; also recorded: did not significantly attenuate”. Further, in series [3], the “heart rate and systolic blood pressure (tail cuff)” value is on record as “did not alter heart rate, or systolic blood pressure”. Also, the “responses to preganglionic nerve stimulation” value in series [4] (3 mg/kg p.o., 5 hours after dosing) was “significantly attenuated the hypertensive and tachycardic responses”. Besides, in series [4] (5 h after oral dosing), the “maximum shift of the frequency-pressor response curve” value is listed as 5 fold.
